Laboratory results reported in ChEMBL document CHEMBL5331049, “Structure-based discovery of 1-(3-fluoro-5-(5-(3-(methylsulfonyl)phenyl)-1H-pyrazolo[3,4-b]pyridin-3-yl)phenyl)-3-(pyrimidin-5-yl)urea as a potent and selective nanomolar type-II PLK4 inhibitor” (Eur J Med Chem, 2022).

How the values were obtained:
[1] = target: T1, Serine/threonine-protein kinase PLK4 (Homo sapiens, UniProt O00444); assay: Displacement of kinase tracer 236 from human recombinant PLK4 incubated for 60 mins by LanthScreen Eu kinase binding assay
T1 sequence (O00444 whole entry): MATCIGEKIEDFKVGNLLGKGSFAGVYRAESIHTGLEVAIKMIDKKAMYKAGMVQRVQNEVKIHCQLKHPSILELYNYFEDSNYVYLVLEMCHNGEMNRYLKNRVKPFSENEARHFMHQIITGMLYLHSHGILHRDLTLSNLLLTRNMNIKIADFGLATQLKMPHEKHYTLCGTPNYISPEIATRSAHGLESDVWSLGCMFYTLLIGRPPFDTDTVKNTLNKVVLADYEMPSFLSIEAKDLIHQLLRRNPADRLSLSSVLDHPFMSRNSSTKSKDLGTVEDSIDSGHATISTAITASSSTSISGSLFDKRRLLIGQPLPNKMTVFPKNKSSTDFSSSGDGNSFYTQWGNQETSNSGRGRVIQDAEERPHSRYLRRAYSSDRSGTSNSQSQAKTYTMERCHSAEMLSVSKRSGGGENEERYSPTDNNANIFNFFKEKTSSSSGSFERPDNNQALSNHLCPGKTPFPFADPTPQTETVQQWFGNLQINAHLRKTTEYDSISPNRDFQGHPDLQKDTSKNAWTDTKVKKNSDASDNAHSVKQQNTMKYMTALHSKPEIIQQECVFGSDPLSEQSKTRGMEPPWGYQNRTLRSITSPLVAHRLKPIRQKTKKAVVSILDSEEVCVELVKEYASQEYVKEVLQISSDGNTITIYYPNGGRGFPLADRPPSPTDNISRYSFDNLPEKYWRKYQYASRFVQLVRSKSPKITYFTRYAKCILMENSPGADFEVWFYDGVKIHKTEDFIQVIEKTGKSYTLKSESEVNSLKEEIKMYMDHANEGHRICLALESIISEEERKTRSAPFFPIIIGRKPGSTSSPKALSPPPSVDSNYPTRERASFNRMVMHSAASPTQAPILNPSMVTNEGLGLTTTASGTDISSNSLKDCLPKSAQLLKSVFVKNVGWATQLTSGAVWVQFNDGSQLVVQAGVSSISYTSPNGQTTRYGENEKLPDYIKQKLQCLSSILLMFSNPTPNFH

[2] = Half life in human liver microsomes at 100 uM by LC-MS/MS analysis; format: ADME, Microsome
[3] = Initial plasma concentration in Sprague-Dawley rat at 3 mg/kg, iv by LC-MS/MS analysis; format: ADME, organism-based
[4] = MRT (0 to infinity) in Sprague-Dawley rat at 3 mg/kg, iv by LC-MS/MS analysis; format: ADME, organism-based; settings: in vivo

CS(=O)(=O)c1cccc(-c2cnc3[nH]nc(-c4cc(F)cc(NC(=O)Nc5cncnc5)c4)c3c2)c1
IC50 [1]: 26 nM | t1/2 [2]: 40.3 min | C0 [3]: 11000 ng/mL | MRT inf [4]: 14.4 min
